# Target: Tyrosine--tRNA ligase (Staphylococcus aureus)
# Test: Compound was tested for inhibition of Staphylococcus aureus tyrosyl tRNA Synthetase
row,Compound,IC50
1,N[C@@H](Cc1ccc(O)cc1)C(=O)N[C@H](C(=O)O)c1ccccc1 [(S)-[(S)-2-Amino-3-(4-hydroxy-phenyl)-propionylamino]-phenyl-acetic acid],900 nM
2,COC(=O)C(NC(=O)[C@@H](N)Cc1ccc(O)cc1)c1ccccc1O (stereo partly drawn) [[(S)-2-Amino-3-(4-hydroxy-phenyl)-propionylamino]-(2-hydroxy-phenyl)-acetic acid methyl ester],1200 nM
3,"N[C@@H](Cc1ccc(O)cc1)C(=O)N[C@H](C(=O)O)c1ccc(O)c(O)c1 [(S)-[(S)-2-Amino-3-(4-hydroxy-phenyl)-propionylamino]-(3,4-dihydroxy-phenyl)-acetic acid]",11000 nM
4,N[C@@H](Cc1ccc(O)cc1)C(=O)NC(C(=O)O)c1ccccc1F (stereo partly drawn) [[(S)-2-Amino-3-(4-hydroxy-phenyl)-propionylamino]-(2-fluoro-phenyl)-acetic acid],7800 nM

# Next, values leading:
row,IC50,Compound
1,3400 nM,N[C@@H](Cc1ccc(O)cc1)C(=O)NC(C(=O)O)c1cccc(O)c1 (stereo partly drawn) [[(S)-2-Amino-3-(4-hydroxy-phenyl)-propionylamino]-(3-hydroxy-phenyl)-acetic acid]
2,800 nM,N[C@@H](Cc1ccc(O)cc1)C(=O)NC(C(=O)O)c1ccccc1O (stereo partly drawn) [[(S)-2-Amino-3-(4-hydroxy-phenyl)-propionylamino]-(2-hydroxy-phenyl)-acetic acid]
